Measured values reported in PubChem BioAssay AID256 (DTP/NCI, 2004).
Where “and” joins values, the source holds several entries; their conditions need not be identical. Equal values may be shown once. Toxic doses and inconclusive results are not listed. Rule for the calls: active = survival T/C of 150% or more; inactive = T/C below 125% in these data.

Tested on: CD2F1 mice, L1210 leukemia ip, survival T/C
Experiment: NCI In Vivo Anticancer Drug Screen. Data for tumor model L1210 Leukemia (intraperitoneal) in CD2F1 (CDF1) mice
Details: higher = longer survival
Outline: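 Antitumor effect is scored in animals hosting a serially transplanted tumor. Values compare compound-dosed animals against vehicle-only controls as a simple quotient.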

[1] = endpoint: mean survival time, dose: 50.0 mg/kg/injection, schedule: Q01DX009 (ip), vehicle: Klucel (hydroxypropylcellulose) (HPC)
[2] = endpoint: mean survival time, dose: 100.0 mg/kg/injection, schedule: Q01DX009 (ip), vehicle: Klucel (hydroxypropylcellulose) (HPC)
[3] = endpoint: mean survival time, dose: 100.0 mg/kg/injection, schedule: Q04DX003 (ip), vehicle: saline with Tween-80
[4] = endpoint: mean survival time, dose: 200.0 mg/kg/injection, schedule: Q04DX003 (ip), vehicle: saline with Tween-80
[5] = endpoint: mean survival time, dose: 400.0 mg/kg/injection, schedule: Q04DX003 (ip), vehicle: saline with Tween-80
[6] = endpoint: mean survival time, dose: 100.0 mg/kg/injection, schedule: Q04DX003 (ip), vehicle: saline
[7] = endpoint: mean survival time, dose: 100.0 mg/kg/injection, schedule: Q01DX001 (ip), vehicle: saline with Tween-80
[8] = endpoint: mean survival time, dose: 200.0 mg/kg/injection, schedule: Q01DX001 (ip), vehicle: saline with Tween-80
[9] = endpoint: mean survival time, dose: 400.0 mg/kg/injection, schedule: Q01DX001 (ip), vehicle: saline with Tween-80
[10] = endpoint: mean survival time, dose: 100.0 mg/kg/injection, schedule: Q04DX002 (ip), vehicle: saline with Tween-80
[11] = endpoint: mean survival time, dose: 200.0 mg/kg/injection, schedule: Q04DX002 (ip), vehicle: saline with Tween-80
[12] = endpoint: mean survival time, dose: 400.0 mg/kg/injection, schedule: Q04DX002 (ip), vehicle: saline with Tween-80
[13] = endpoint: mean survival time, dose: 50.0 mg/kg/injection, schedule: Q04DX002 (ip), vehicle: saline with Tween-80
[14] = endpoint: mean survival time, dose: 100.0 mg/kg/injection, schedule: Q01DX009 (ip), vehicle: saline with Tween-80
[15] = endpoint: mean survival time, dose: 200.0 mg/kg/injection, schedule: Q01DX009 (ip), vehicle: saline with Tween-80
[16] = endpoint: mean survival time, dose: 400.0 mg/kg/injection, schedule: Q01DX009 (ip), vehicle: saline with Tween-80
[17] = endpoint: mean survival time, dose: 100.0 mg/kg/injection, schedule: Q01DX009 (ip), vehicle: other

Measured: T/C

COC(=O)Nc1cccc(-c2nc3ccc(NC(=O)OC)cc3c(=O)n2-c2ccccc2)c1
inactive: [1] 114 % of control | [2] 91 % of control | endpoint: median survival time, dose: 50.0 mg/kg/injection, schedule: Q04DX003 (ip), vehicle: saline with Tween-80 101 % of control | endpoint: median survival time, dose: 100.0 mg/kg/injection, schedule: Q04DX003 (ip), vehicle: saline with Tween-80 103 % of control | endpoint: median survival time, dose: 200.0 mg/kg/injection, schedule: Q04DX003 (ip), vehicle: saline with Tween-80 100 % of control

CN1CCC(CNC(=O)CCCCCCCCC(=O)NCC2(c3ccccc3)CCN(C)CC2)(c2ccccc2)CC1
inactive: endpoint: mean survival time, dose: 1.25 mg/kg/injection, schedule: Q04DX003 (ip), vehicle: saline with Tween-80 95 % of control | endpoint: mean survival time, dose: 2.5 mg/kg/injection, schedule: Q04DX003 (ip), vehicle: saline with Tween-80 94 % of control

c1ccc(-c2ncnc3ccccc23)cc1
inactive: [3] 103 % of control | [4] 101 % of control | [5] 97 % of control

NC(Cc1cccc(NP(=S)(N2CC2)N2CC2)c1)C(=O)O (centres undefined)
inactive: endpoint: mean survival time, dose: 100.0 mg/kg/injection, schedule: Q01DX009 (ip), vehicle: saline 119 % of control | [6] 113 % of control | endpoint: mean survival time, dose: 200.0 mg/kg/injection, schedule: Q01DX009 (ip), vehicle: saline 100 % of control

Cc1cc(=O)[nH]c(Nc2ccccc2)n1
inactive: [3] 105 % of control | [4] 97 % of control | [5] 88 % of control

CC1c2ccccc2CC(CCN(C)C)c2ccccc21 (centres undefined)
inactive: endpoint: median survival time, dose: 6.25 mg/kg/injection, schedule: Q01DX009 (ip), vehicle: saline with Tween-80 94 % of control | endpoint: median survival time, dose: 12.5 mg/kg/injection, schedule: Q01DX009 (ip), vehicle: saline with Tween-80 113 % of control | endpoint: median survival time, dose: 25.0 mg/kg/injection, schedule: Q01DX009 (ip), vehicle: saline with Tween-80 108 % of control | endpoint: median survival time, dose: 50.0 mg/kg/injection, schedule: Q01DX009 (ip), vehicle: saline with Tween-80 112 % of control

COC(=O)CCS/C=C/C(=O)O
inactive: [7] 97 % of control | [8] 100 % of control | [9] 97 % of control

CNC(=O)c1n[nH]c(C)c1[N+](=O)[O-]
inactive: endpoint: mean survival time, dose: 25.0 mg/kg/injection, schedule: Q01DX009 (ip), vehicle: Klucel (hydroxypropylcellulose) (HPC) 107 % of control | [1] 107 % of control | [2] 107 % of control | endpoint: mean survival time, dose: 200.0 mg/kg/injection, schedule: Q01DX009 (ip), vehicle: Klucel (hydroxypropylcellulose) (HPC) 104 % of control | endpoint: mean survival time, dose: 400.0 mg/kg/injection, schedule: Q01DX009 (ip), vehicle: Klucel (hydroxypropylcellulose) (HPC) 102 % of control

O=C(c1ccccc1)C1OC1(CCl)c1ccccc1 (centres undefined)
inactive: [7] 106 % of control | [8] 90 % of control | [9] 86 % of control

CCCCCOc1ccccc1Cl
inactive: [10] 101 % of control | [11] 98 % of control

CCCCCC/C=N/[N+](C)(C)C
inactive: endpoint: mean survival time, dose: 12.5 mg/kg/injection, schedule: Q01DX009 (ip), vehicle: saline 114 % of control | endpoint: mean survival time, dose: 25.0 mg/kg/injection, schedule: Q01DX009 (ip), vehicle: saline 101 % of control | endpoint: mean survival time, dose: 50.0 mg/kg/injection, schedule: Q01DX009 (ip), vehicle: saline 101 % of control and 107 % of control

CC(C)(CNC1=NCCO1)NC1=NCCO1
inactive: [6] 104 % of control | endpoint: mean survival time, dose: 200.0 mg/kg/injection, schedule: Q04DX003 (ip), vehicle: saline 104 % of control

Nc1ccc(N(S(=O)(=O)c2ccccc2)S(=O)(=O)c2ccccc2)c(Cl)c1
inactive: [7] 96 % of control | [8] 98 % of control | [9] 96 % of control

C=Cc1cnc(N)nc1-c1ccc(OC)cc1
inactive: [10] 101 % of control | [11] 96 % of control | [12] 96 % of control

Oc1ccccc1C=NC1CCCCC1N=Cc1ccccc1O.[Ni] (centres undefined)
inactive: [13] 89 % of control | [10] 97 % of control | [11] 97 % of control | [12] 93 % of control

CCCCCCCP(=O)(CCCCCCC)CCCCCCC
inactive: endpoint: mean survival time, dose: 25.0 mg/kg/injection, schedule: Q01DX001 (ip), vehicle: saline with Tween-80 107 % of control | endpoint: mean survival time, dose: 50.0 mg/kg/injection, schedule: Q01DX001 (ip), vehicle: saline with Tween-80 96 % of control | [7] 100 % of control

CSc1nc(N)nc2n[nH]nc12
inactive: endpoint: mean survival time, dose: 100.0 mg/kg/injection, schedule: Q01DX001 (ip), vehicle: Klucel (hydroxypropylcellulose) (HPC) 97 % of control | endpoint: mean survival time, dose: 200.0 mg/kg/injection, schedule: Q01DX001 (ip), vehicle: Klucel (hydroxypropylcellulose) (HPC) 105 % of control | endpoint: mean survival time, dose: 400.0 mg/kg/injection, schedule: Q01DX001 (ip), vehicle: Klucel (hydroxypropylcellulose) (HPC) 103 % of control

C(=N\N=C\c1ccccc1)/c1ccccc1
inactive: [7] 100 % of control | [3] 103 % of control | [8] 100 % of control | [4] 91 % of control | [9] 97 % of control | [5] 96 % of control

COC(=O)C(I)C(OC)c1ccccc1 (centres undefined)
inactive: [14] 107 % of control | [15] 100 % of control | [16] 97 % of control

COc1ccc2nc3cc(Cl)ccc3c(Nc3ccc(C(O)CCN(C)C)cc3)c2c1 (centres undefined)
inactive: endpoint: mean survival time, dose: 75.0 mg/kg/injection, schedule: Q01DX001 (ip), vehicle: saline 92 % of control | endpoint: mean survival time, dose: 150.0 mg/kg/injection, schedule: Q01DX001 (ip), vehicle: saline 92 % of control | endpoint: mean survival time, dose: 300.0 mg/kg/injection, schedule: Q01DX001 (ip), vehicle: saline 90 % of control

Oc1ccc(CCNCc2cc3c(cc2Br)OCO3)cc1
inactive: [7] 104 % of control | [8] 96 % of control | [9] 104 % of control

Cc1c(Cl)c(C)c(Cl)c(O)c1Cl
inactive: [14] 96 % of control | [15] 100 % of control | [16] 87 % of control

Cc1nc(-c2ccccc2)[nH]c(=O)c1CC(C)O (centres undefined)
inactive: [14] 91 % of control | [3] 94 % of control | [15] 96 % of control | [4] 95 % of control | [5] 92 % of control

O=C(CCCl)c1ccccc1
inactive: endpoint: mean survival time, dose: 25.0 mg/kg/injection, schedule: Q01DX009 (ip), vehicle: other 104 % of control | endpoint: mean survival time, dose: 50.0 mg/kg/injection, schedule: Q01DX009 (ip), vehicle: other 100 % of control | [17] 92 % of control and 96 % of control

Cc1ccc(NC(=O)c2ccccc2Cl)cc1
inactive: [14] 95 % of control | [3] 95 % of control | [15] 92 % of control | [4] 96 % of control | [16] 94 % of control | [5] 93 % of control

O=S(=O)(Cc1cc(-c2ccccc2)n[nH]1)c1ccccc1
inactive: endpoint: mean survival time, dose: 100.0 mg/kg/injection, schedule: Q01DX001 (ip), vehicle: saline 96 % of control | endpoint: mean survival time, dose: 200.0 mg/kg/injection, schedule: Q01DX001 (ip), vehicle: saline 95 % of control | endpoint: mean survival time, dose: 400.0 mg/kg/injection, schedule: Q01DX001 (ip), vehicle: saline 98 % of control

O=C(NCCCCCCCCNC(=O)N1CC1)N1CC1
active: endpoint: mean survival time, dose: 7.5 mg/kg/injection, schedule: Q01DX001 (ip), vehicle: carboxymethylcellulose (CMC) 152 % of control | endpoint: mean survival time, dose: 11.0 mg/kg/injection, schedule: Q01DX001 (ip), vehicle: carboxymethylcellulose (CMC) 183 % of control
inactive: endpoint: mean survival time, dose: 1.5 mg/kg/injection, schedule: Q01DX001 (ip), vehicle: carboxymethylcellulose (CMC) 117 % of control | endpoint: mean survival time, dose: 2.25 mg/kg/injection, schedule: Q01DX001 (ip), vehicle: carboxymethylcellulose (CMC) 111 % of control | endpoint: mean survival time, dose: 3.3 mg/kg/injection, schedule: Q01DX001 (ip), vehicle: carboxymethylcellulose (CMC) 121 % of control | endpoint: mean survival time, dose: 5.0 mg/kg/injection, schedule: Q01DX001 (ip), vehicle: carboxymethylcellulose (CMC) 122 % of control

CCCCCCCCCCCCCCCCOc1ccccc1CNc1cc(C(F)(F)F)ccc1Cl
inactive: [17] 89 % of control | endpoint: mean survival time, dose: 200.0 mg/kg/injection, schedule: Q01DX009 (ip), vehicle: other 103 % of control | endpoint: mean survival time, dose: 400.0 mg/kg/injection, schedule: Q01DX009 (ip), vehicle: other 91 % of control

O=c1cc(CCl)oc(Br)c1O
inactive: endpoint: mean survival time, dose: 25.0 mg/kg/injection, schedule: Q04DX002 (ip), vehicle: saline with Tween-80 98 % of control | [13] 98 % of control | [10] 91 % of control

O=C(Cn1ccc(=O)[nH]c1=O)c1c[nH]c2ccccc12
inactive: [10] 108 % of control | [11] 108 % of control | [12] 104 % of control
